Laboratory results from US20160193219A1, “SUBSTITUTED 2,3-DIHYDROIMIDAZO[1,2-C]QUINAZOLINE SALTS” (priority 2011, published 2016).
Like-named read-outs stand apart in the source and are kept apart here.

Columns and labels:
[1] = Stability as solid (stored at 90° C. for 1 week, HPLC); assay type: physicochemical
PC3 = test: Proliferation assay (Cell Titer-Glo, 72 h), PC3; settings: Homo sapiens, PC-3, 72 h, PC3, Prostate
KPL4 = test: Proliferation assay (Cell Titer-Glo, 72 h), KPL4; settings: KPL4, 72 h
T47D = test: Proliferation assay (Cell Titer-Glo, 72 h), T47D; settings: Breast, listed as free base
BT20 = test: Proliferation assay (Cell Titer-Glo, 72 h), BT20; settings: BT20, Breast, listed as free base
MCF7 = test: Proliferation assay (Cell Titer-Glo, 72 h), MCF7; settings: MCF7, Breast, listed as free base
HT29 = test: Proliferation assay (Cell Titer-Glo, 72 h), HT29; settings: HT29, Colon, listed as free base
A549 = test: Proliferation assay (Cell Titer-Glo, 72 h), A549; settings: Homo sapiens, A549, 72 h, A549, Lung
H460 = test: Proliferation assay (Cell Titer-Glo, 72 h), H460; settings: Homo sapiens, NCI-H460, 72 h, H460, Lung
786O = test: Proliferation assay (Cell Titer-Glo, 72 h), 786O; settings: Kidney, listed as free base
BT474 = test: Proliferation assay (Cell Titer-Glo, 72 h), BT474; settings: Homo sapiens, BT-474, 72 h, BT474, Breast
LNCaP = test: Proliferation assay (Cell Titer-Glo, 72 h), LNCaP; settings: Homo sapiens, 72 h, Prostate
U87MG = test: Proliferation assay (Cell Titer-Glo, 72 h), U87MG; settings: Homo sapiens, U-87 MG
HCT116 = test: Proliferation assay (Cell Titer-Glo, 72 h), HCT116; settings: Homo sapiens, HCT-116, 72 h, HCT116, Colon
SK-Br-3 = test: Proliferation assay (Cell Titer-Glo, 72 h), SK-Br-3; settings: Homo sapiens, SK-BR-3, 72 h, SK-Br-3, Breast
Colo205 = test: Proliferation assay (Cell Titer-Glo, 72 h), Colo205; settings: Colo205, Colon, listed as free base
MDA-MB-468 = test: Proliferation assay (Cell Titer-Glo, 72 h), MDA-MB-468; settings: MDA-MB-468, Breast, listed as free base

COc1c(OCCCN2CCOCC2)ccc2c1N=C(NC(=O)c1cnc(N)nc1)N1CCN=C21 [compound of formula (I), 2-amino-N-[7-methoxy-8-(3-morpholin-4-ylpropoxy)-2,3-dihydroimidazo[1,2-c]quinazolin-5-yl]pyrimidine-5-carboxamide]
stability in solid form [1]: stable in solid form | therm. stab. solid ([1]; 1 w @ 90° C.): ++ | Appearance (0.1M HCl, 1 week, 25° C.): slightly colored solution | Organic impurities, single (0.1M HCl, 1 week, 25° C.): 7.15 Area % | Organic impurities, sum of all (0.1M HCl, 1 week, 25° C.): 24.27 Area % | Appearance (0.1M HCl, 1 week, 70° C.): slightly colored solution | Organic impurities, single (0.1M HCl, 1 week, 70° C.): 25.48 Area % | Organic impurities, sum of all (0.1M HCl, 1 week, 70° C.): 100.00 Area % | Appearance (0.1M HCl, 24 h, 25° C.): slightly colored solution | Organic impurities, single (0.1M HCl, 24 h, 25° C.): 1.90 Area % | Organic impurities, sum of all (0.1M HCl, 24 h, 25° C.): 8.75 Area % | Appearance (0.1M HCl, 24 h, 70° C.): slightly colored solution | Organic impurities, single (0.1M HCl, 24 h, 70° C.): 22.82 Area % | Organic impurities, sum of all (0.1M HCl, 24 h, 70° C.): 92.49 Area % | Appearance (0.1M HCl, Initial): slightly colored solution | Organic impurities, single (0.1M HCl, Initial): 1.13 Area % | Organic impurities, sum of all (0.1M HCl, Initial): 5.87 Area % | Appearance (0.1M NaOH, 1 week, 25° C.): slightly colored solution | Organic impurities, single (0.1M NaOH, 1 week, 25° C.): 22.03 Area % | Organic impurities, sum of all (0.1M NaOH, 1 week, 25° C.): 86.64 Area % | Appearance (0.1M NaOH, 1 week, 70° C.): slightly colored solution | Organic impurities, single (0.1M NaOH, 1 week, 70° C.): 32.63 Area % | Organic impurities, sum of all (0.1M NaOH, 1 week, 70° C.): 99.90 Area % | Appearance (0.1M NaOH, 24 h, 25° C.): slightly colored solution | Organic impurities, single (0.1M NaOH, 24 h, 25° C.): 10.02 Area % | Organic impurities, sum of all (0.1M NaOH, 24 h, 25° C.): 45.40 Area % | Appearance (0.1M NaOH, 24 h, 70° C.): slightly colored solution | Organic impurities, single (0.1M NaOH, 24 h, 70° C.): 23.94 Area % | Organic impurities, sum of all (0.1M NaOH, 24 h, 70° C.): 99.88 Area % | Appearance (0.1M NaOH, Initial): slightly colored solution | Organic impurities, single (0.1M NaOH, Initial): 6.51 Area % | Organic impurities, sum of all (0.1M NaOH, Initial): 30.72 Area % | Appearance (Buffer pH 7, 1 week, 25° C.): slightly colored turbid | Organic impurities, single (Buffer pH 7, 1 week, 25° C.): 0.82 Area % | Organic impurities, sum of all (Buffer pH 7, 1 week, 25° C.): 4.85 Area % | Appearance (Buffer pH 7, 1 week, 70° C.): slightly colored solution | Organic impurities, single (Buffer pH 7, 1 week, 70° C.): 39.01 Area % | Organic impurities, sum of all (Buffer pH 7, 1 week, 70° C.): 97.65 Area % | Appearance (Buffer pH 7, 24 h, 25° C.): slightly colored turbid | Organic impurities, single (Buffer pH 7, 24 h, 25° C.): 0.20 Area % | Organic impurities, sum of all (Buffer pH 7, 24 h, 25° C.): 3.22 Area % | Appearance (Buffer pH 7, 24 h, 70° C.): slightly colored solution | Organic impurities, single (Buffer pH 7, 24 h, 70° C.): 23.25 Area % | Organic impurities, sum of all (Buffer pH 7, 24 h, 70° C.): 56.06 Area % | Appearance (Buffer pH 7, Initial): slightly colored turbid | Organic impurities, single (Buffer pH 7, Initial): 0.23 Area % | Organic impurities, sum of all (Buffer pH 7, Initial): 3.15 Area % | Appearance (Water, 1 week, 25° C.): slightly colored solution | Organic impurities, single (Water, 1 week, 25° C.): 0.54 Area % | Organic impurities, sum of all (Water, 1 week, 25° C.): 5.33 Area % | Appearance (Water, 1 week, 70° C.): slightly colored solution | Organic impurities, single (Water, 1 week, 70° C.): 45.44 Area % | Organic impurities, sum of all (Water, 1 week, 70° C.): 98.59 Area % | Appearance (Water, 24 h, 25° C.): slightly colored solution | Organic impurities, single (Water, 24 h, 25° C.): 0.23 Area % | Organic impurities, sum of all (Water, 24 h, 25° C.): 3.43 Area % | Appearance (Water, 24 h, 70° C.): slightly colored solution | Organic impurities, single (Water, 24 h, 70° C.): 25.89 Area % | Organic impurities, sum of all (Water, 24 h, 70° C.): 58.00 Area % | Appearance (Water, Initial): slightly colored solution | Organic impurities, single (Water, Initial): 0.25 Area % | Organic impurities, sum of all (Water, Initial): 2.79 Area % | IC50 (PC3): 0.1 µM | IC50 (KPL4): 0.003 µM | IC50 (T47D): 0.006 µM | IC50 (BT20): 0.006 µM | IC50 (MCF7): 0.027 µM | IC50 (HT29): 0.027 µM | IC50 (A549): 0.037 µM | IC50 (H460): 0.046 µM | IC50 (786O): 0.116 µM | IC50 (BT474): 0.005 µM | IC50 (LNCaP): 0.069 µM | IC50 (U87MG): 0.085 µM | IC50 (HCT116): 0.056 µM | IC50 (SK-Br-3): 0.002 µM | IC50 (Colo205): 0.048 µM | IC50 (MDA-MB-468): 0.76 µM
